Laboratory results published in PubChem BioAssay AID192 (DTP/NCI, 2004).
Where “and” joins values, the source holds several entries; their conditions need not be identical. Equal values may be shown once. Toxic doses and inconclusive results are not listed.

Tested on: BDF1 mice, B16 melanoma ip, median survival T/C
Experiment: NCI In Vivo Anticancer Drug Screen. Data for tumor model B16 Melanoma (intraperitoneal) in B6D2F1 (BDF1) mice
Settings: endpoint: median survival time, higher = longer survival
In short: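 The ratio T/C compares compound-treated mice with vehicle-treated controls, using survival or tumor size as the endpoint in a transplantable tumor model.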

[1] = dose: 100.0 mg/kg/injection, schedule: Q01DX009 (ip), vehicle: saline with Tween-80
[2] = dose: 25.0 mg/kg/injection, schedule: Q01DX009 (ip), vehicle: Klucel (hydroxypropylcellulose) (HPC)
[3] = dose: 50.0 mg/kg/injection, schedule: Q01DX009 (ip), vehicle: Klucel (hydroxypropylcellulose) (HPC)
[4] = dose: 100.0 mg/kg/injection, schedule: Q01DX009 (ip), vehicle: Klucel (hydroxypropylcellulose) (HPC)
[5] = dose: 200.0 mg/kg/injection, schedule: Q01DX009 (ip), vehicle: Klucel (hydroxypropylcellulose) (HPC)
[6] = dose: 6.25 mg/kg/injection, schedule: Q01DX009 (ip), vehicle: Klucel (hydroxypropylcellulose) (HPC)
[7] = dose: 12.5 mg/kg/injection, schedule: Q01DX009 (ip), vehicle: saline
[8] = dose: 25.0 mg/kg/injection, schedule: Q01DX009 (ip), vehicle: saline
[9] = dose: 50.0 mg/kg/injection, schedule: Q01DX009 (ip), vehicle: saline
[10] = dose: 6.25 mg/kg/injection, schedule: Q01DX009 (ip), vehicle: saline
[11] = dose: 200.0 mg/kg/injection, schedule: Q01DX009 (ip), vehicle: saline with Tween-80
[12] = dose: 400.0 mg/kg/injection, schedule: Q01DX009 (ip), vehicle: saline with Tween-80

CS(=O)(=O)c1cc(C(F)(F)F)cc([N+](=O)[O-])c1Cl
T/C (dose: 25.0 mg/kg/injection, schedule: Q01DX009 (ip), vehicle: saline with Tween-80): 89 % of control
T/C (dose: 50.0 mg/kg/injection, schedule: Q01DX009 (ip), vehicle: saline with Tween-80): 95 % of control
T/C [1]: 95 % of control

O=[N+]([O-])c1ccc(/C=C/c2ccccc2)c([N+](=O)[O-])c1
T/C (dose: 100.0 mg/kg/injection, schedule: Q04DX003 (ip), vehicle: Klucel (hydroxypropylcellulose) (HPC)): 97 % of control
T/C (dose: 200.0 mg/kg/injection, schedule: Q04DX003 (ip), vehicle: Klucel (hydroxypropylcellulose) (HPC)): 96 % of control
T/C (dose: 400.0 mg/kg/injection, schedule: Q04DX003 (ip), vehicle: Klucel (hydroxypropylcellulose) (HPC)): 97 % of control

C1CC[N-]CC1.CC(=N\O)/C(C)=N/O.CC(=N\O)/C(C)=N/O.C[CH-]CC.[Co+2]
T/C [2]: 102 % of control
T/C [3]: 108 % of control

O=C(O)/C=C/C(=O)NCc1ccco1
T/C [4]: 102 % of control
T/C [5]: 86 % of control

COc1ccccc1NC(=O)Nc1ccccc1
T/C [4]: 104 % of control
T/C [5]: 103 % of control
T/C (dose: 400.0 mg/kg/injection, schedule: Q01DX009 (ip), vehicle: Klucel (hydroxypropylcellulose) (HPC)): 109 % of control

OC(CCN1CCCC1)(c1ccccc1)C1CCCCC1 (centres undefined)
T/C [6]: 101 % of control
T/C [2]: 98 % of control
T/C [3]: 93 % of control
T/C [4]: 87 % of control

CC(C)=CCN1CCC2(C)c3cc(O)ccc3CC1C2C (centres undefined)
T/C (dose: 0.39 mg/kg/injection, schedule: Q01DX009 (ip), vehicle: Klucel (hydroxypropylcellulose) (HPC)): 123 % of control
T/C (dose: 0.78 mg/kg/injection, schedule: Q01DX009 (ip), vehicle: Klucel (hydroxypropylcellulose) (HPC)): 102 % of control
T/C (dose: 1.56 mg/kg/injection, schedule: Q01DX009 (ip), vehicle: Klucel (hydroxypropylcellulose) (HPC)): 123 % of control
T/C [6]: 105 % of control

COc1cc([C@@H]2c3cc4c(cc3[C@H](O)[C@H]3COC(=O)[C@@H]23)OCO4)cc(OC)c1OC
T/C (dose: 6.0 mg/kg/injection, schedule: Q01DX009 (ip), vehicle: Klucel (hydroxypropylcellulose) (HPC)): 105 % of control
T/C (dose: 12.0 mg/kg/injection, schedule: Q01DX009 (ip), vehicle: Klucel (hydroxypropylcellulose) (HPC)): 113 % of control
T/C (dose: 24.0 mg/kg/injection, schedule: Q01DX009 (ip), vehicle: Klucel (hydroxypropylcellulose) (HPC)): 113 % of control

CC1=CC(=O)N(NC(N)=O)C1=O
T/C [7]: 107 % of control
T/C [8]: 96 % of control
T/C [9]: 87 % of control

COc1ccc2c(c1)c(C#N)cc[n+]2C
T/C (dose: 3.13 mg/kg/injection, schedule: Q01DX009 (ip), vehicle: saline): 102 % of control
T/C [10]: 100 % of control

NC(Cc1ccc(Cl)cc1)C(=O)O (centres undefined)
T/C [1]: 123 % of control
T/C [11]: 115 % of control
T/C [12]: 104 % of control

O=[N+]([O-])c1ccc(/C=C/c2ccc([N+](=O)[O-])cc2S(=O)(=O)O)c(S(=O)(=O)O)c1
T/C [1]: 104 % of control
T/C [11]: 95 % of control
T/C [12]: 109 % of control

COc1cccc2c1C(=O)c1c(O)c3c(c(O)c1C2=O)C[C@@](O)(C(=O)CN1CCN(C)CC1)C[C@@H]3OC1CC(N)C(O)C(C)O1 (some centres undefined)
T/C (dose: 1.56 mg/kg/injection, schedule: Q01DX009 (ip), vehicle: water): 110 % of control
T/C (dose: 3.13 mg/kg/injection, schedule: Q01DX009 (ip), vehicle: water): 113 % of control

CN(C)CCC(=O)c1ccccc1
T/C [10]: 105 % of control
T/C [7]: 105 % of control

[I][Pt+2][I].[NH-]CC[NH-]
T/C (dose: 2.75 mg/kg/injection, schedule: Q01DX009 (ip), vehicle: Klucel (hydroxypropylcellulose) (HPC)): 110 % of control
T/C (dose: 5.5 mg/kg/injection, schedule: Q01DX009 (ip), vehicle: Klucel (hydroxypropylcellulose) (HPC)): 109 % of control and 114 % of control
T/C (dose: 11.0 mg/kg/injection, schedule: Q01DX009 (ip), vehicle: Klucel (hydroxypropylcellulose) (HPC)): 109 % of control and 113 % of control
T/C (dose: 22.0 mg/kg/injection, schedule: Q01DX009 (ip), vehicle: Klucel (hydroxypropylcellulose) (HPC)): 120 % of control

CCNCCNC
T/C [8]: 109 % of control
T/C [9]: 98 % of control
T/C (dose: 100.0 mg/kg/injection, schedule: Q01DX009 (ip), vehicle: saline): 86 % of control

CCCCCCCCCCCCCCCCCCNC(=O)CCl
T/C [3]: 93 % of control
T/C [4]: 93 % of control
T/C [5]: 86 % of control
